Our source for the GI50 and TGI values is PubChem BioAssay (NCI).

Test systems include CAKI-1 renal; EKVX NSCLC; HOP-62 NSCLC; HOP-92 NSCLC; HT29 colon; OVCAR-8 ovarian; SK-MEL-5 melanoma; SNB-75 CNS; U251 CNS; UACC-62 melanoma.
Common to all, as to assay: DTP human tumour cell line panel, 48 h

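Exposure lasted 48 hours, with cells grown in 96-well plates and compounds tested at five concentrations. At the GI50, growth is halved. TGI denotes the concentration required for complete inhibition of growth.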

Turning to `CNC(C)[C@H]1CCC2C3CCC4C[C@@H](N(C)C(=O)c5ccccc5)CC[C@]4(C)C3CC[C@@]21C` (stereo not given in full), the GI50 was 1540 nM with CAKI-1 renal; 0.613 µM with EKVX NSCLC; 1.43 µM with HOP-62 NSCLC; 0.384 µM in the experiment on HOP-92 NSCLC; 0.291 µM in the experiment with HT29 colon; 3.44 µM in the experiment with OVCAR-8 ovarian. In addition, the GI50 in the experiment on SK-MEL-5 melanoma is 0.613 µM; in the experiment on SNB-75 CNS, 1.97 µM; in the experiment with U251 CNS, 1.25 µM; in the experiment with UACC-62 melanoma it was 1.02 µM. For the same compound, the TGI in the experiment on CAKI-1 renal turned out to be 5.13 µM; in the experiment with EKVX NSCLC, 6.3 µM; with HOP-62 NSCLC it was 3.17 µM; in the experiment on HOP-92 NSCLC it was 3.52 µM; in the experiment with HT29 colon, 1.23 µM; with OVCAR-8 ovarian it was 23.2 µM. For the same compound, the concentration for total growth inhibition (TGI) in the experiment with SK-MEL-5 melanoma was determined as 2.02 µM; in the experiment on SNB-75 CNS, 5.12 µM; with U251 CNS, 5.4 µM; with UACC-62 melanoma it was 2.64 µM.

Take `CC(=O)[O][Hg][CH2]C1(C)COC(C)([CH2][Hg][O]C(C)=O)CO1` (stereo not given): the GI50 in the experiment on CAKI-1 renal is 805 nM; in the experiment with EKVX NSCLC, 18.4 µM; in the experiment with HOP-62 NSCLC, 40.5 µM; in the experiment with HOP-92 NSCLC, 5.62 µM; with HT29 colon it was 6.67 µM; with OVCAR-8 ovarian, 6.03 µM. Further, the GI50 in the experiment with SK-MEL-5 melanoma was 13.4 µM; with SNB-75 CNS, 17.7 µM; in the experiment on U251 CNS it was 1.44 µM; with UACC-62 melanoma, 4.94 µM. The total growth inhibition concentration (TGI) in the experiment on CAKI-1 renal was 2.42 µM; with EKVX NSCLC, 36.3 µM; in the experiment with HOP-62 NSCLC, more than 63.5 µM; in the experiment on HOP-92 NSCLC, 19.1 µM; in the experiment on HT29 colon, more than 59.2 µM; with OVCAR-8 ovarian, 52.1 µM. Besides, the TGI was found to be 26.5 µM with SK-MEL-5 melanoma, 34 µM with SNB-75 CNS, 2.79 µM with U251 CNS and 9.26 µM in the experiment on UACC-62 melanoma.

As for `CCOc1ccc(NC(=O)c2cc3ccccc3cc2O)cc1`, the GI50 with CAKI-1 renal is more than 100000 nM; in the experiment with EKVX NSCLC, more than 100 µM; in the experiment on HOP-62 NSCLC it was 27.7 µM; in the experiment on HOP-92 NSCLC it was 11.7 µM; in the experiment on HT29 colon it was more than 100 µM; in the experiment with OVCAR-8 ovarian, 47.8 µM. Moreover, the GI50 is more than 100 µM in the experiment with SK-MEL-5 melanoma, 34.9 µM with SNB-75 CNS, 45.9 µM in the experiment on U251 CNS and 57.4 µM with UACC-62 melanoma. Also, the TGI is more than 100 µM in the experiment on CAKI-1 renal; more than 100 µM in the experiment with EKVX NSCLC; 81.5 µM in the experiment with HOP-62 NSCLC; 38.5 µM in the experiment with HOP-92 NSCLC; more than 100 µM in the experiment on HT29 colon; more than 100 µM in the experiment on OVCAR-8 ovarian. In addition, the total growth inhibition concentration (TGI) in the experiment with SK-MEL-5 melanoma, in the experiment on SNB-75 CNS, in the experiment with U251 CNS and in the experiment with UACC-62 melanoma was more than 100 µM each time.

For the compound `CNC12C3C4C1C1C2C3C41C(=O)N[C@H](C(=O)N(C)[C@H](C[C@@H](OC(C)=O)c1nc(C(=O)N[C@@H](Cc2ccccc2)C[C@H](C)C(=O)OC)cs1)C(C)C)C1CC1` (stereo not given in full), the GI50 in the experiment on CAKI-1 renal is 2730 nM; in the experiment on EKVX NSCLC it was 1.95 µM; in the experiment on HOP-62 NSCLC, 0.501 µM; with HOP-92 NSCLC it was 1.8 µM; in the experiment on HT29 colon it was 0.257 µM; with OVCAR-8 ovarian, 0.523 µM. In addition, the GI50 in the experiment with SK-MEL-5 melanoma was 0.155 µM; in the experiment with SNB-75 CNS it was 0.129 µM; in the experiment on U251 CNS, 0.587 µM; in the experiment with UACC-62 melanoma, 0.0921 µM. The TGI in the experiment with CAKI-1 renal was more than 15 µM; with EKVX NSCLC, more than 15 µM; in the experiment on HOP-62 NSCLC it was more than 15 µM; in the experiment with HOP-92 NSCLC, 8.93 µM; in the experiment on HT29 colon it was 1.28 µM; in the experiment with OVCAR-8 ovarian it was more than 15 µM. Also, the TGI with SK-MEL-5 melanoma was 1.41 µM; in the experiment on SNB-75 CNS, 2.73 µM; in the experiment on U251 CNS, more than 15 µM; in the experiment with UACC-62 melanoma it was 2.98 µM.

For `C[C@@H]1CC[C@@H]2[C@@H]1[C@H](OC(=O)c1ccc3ccccc3c1)[C@]1(C3CCCCC3)C[C@@H](OC(=O)CO)[C@@]2(C)O1`, the GI50 in the experiment with CAKI-1 renal was 39.1 nM; in the experiment with EKVX NSCLC, 11.4 µM; with HOP-62 NSCLC, 12.8 µM; in the experiment with HOP-92 NSCLC, 3.15 µM; with HT29 colon, 4.38 µM; in the experiment with OVCAR-8 ovarian, 5.62 µM. Further, the GI50 in the experiment with SK-MEL-5 melanoma was 14 µM; in the experiment on SNB-75 CNS it was 0.546 µM; with U251 CNS, 10.9 µM; in the experiment on UACC-62 melanoma, 14.3 µM. The TGI in the experiment with CAKI-1 renal is 10.9 µM; with EKVX NSCLC, 26.7 µM; with HOP-62 NSCLC it was 25.6 µM; with HOP-92 NSCLC it was 15.4 µM; in the experiment on HT29 colon, 18.3 µM; with OVCAR-8 ovarian it was 26.5 µM. For the same compound, the TGI in the experiment on SK-MEL-5 melanoma was found to be 27.4 µM; in the experiment on SNB-75 CNS it was 18.8 µM; with U251 CNS, 23 µM; with UACC-62 melanoma, 28.5 µM.

Consider `CN(N=O)C(=O)Nc1ccc(C(=O)O)cc1`, for which the TGI with CAKI-1 renal, in the experiment with EKVX NSCLC, in the experiment with HOP-62 NSCLC, with HOP-92 NSCLC, with HT29 colon and in the experiment on OVCAR-8 ovarian was more than 100 µM throughout. In addition, the TGI with SK-MEL-5 melanoma, in the experiment with SNB-75 CNS, with U251 CNS and with UACC-62 melanoma was more than 100 µM throughout.

`O=C(O)c1cc2cc(O)ccc2[nH]1`: the GI50 with CAKI-1 renal was more than 100000 nM; in the experiment with EKVX NSCLC, more than 100 µM; in the experiment with HOP-62 NSCLC, more than 100 µM; in the experiment with HOP-92 NSCLC, more than 100 µM; in the experiment on HT29 colon it was more than 100 µM; in the experiment on OVCAR-8 ovarian it was more than 100 µM. The GI50 in the experiment with SK-MEL-5 melanoma, in the experiment on SNB-75 CNS, in the experiment with U251 CNS and in the experiment with UACC-62 melanoma was more than 100 µM in each case. For the same compound, the total growth inhibition concentration (TGI) in the experiment with CAKI-1 renal, in the experiment on EKVX NSCLC, in the experiment with HOP-62 NSCLC, with HOP-92 NSCLC, in the experiment with HT29 colon and in the experiment with OVCAR-8 ovarian was more than 100 µM in each case. In addition, the TGI with SK-MEL-5 melanoma, in the experiment on SNB-75 CNS, with U251 CNS and in the experiment with UACC-62 melanoma was more than 100 µM each time.

In the case of `C=C1[C@@H](O)C[C@H]2C(C)(C)C[C@H](Cl)C[C@]2(C)[C@H]1C[C@H](O)[C@H]1CC(=O)NC1=O`, the GI50 is 41.8 nM in the experiment with CAKI-1 renal; 0.0157 µM in the experiment on EKVX NSCLC; 0.0116 µM in the experiment with HOP-62 NSCLC; less than 0.0115 µM with HOP-92 NSCLC; less than 0.0105 µM in the experiment with HT29 colon; 0.0155 µM in the experiment on OVCAR-8 ovarian. For the same compound, the GI50 was less than 0.0134 µM in the experiment on SK-MEL-5 melanoma, 0.0287 µM with SNB-75 CNS, less than 0.01 µM in the experiment with U251 CNS and 0.0194 µM in the experiment on UACC-62 melanoma. Further, the TGI in the experiment on CAKI-1 renal amounted to 1.59 µM; in the experiment with EKVX NSCLC, 0.128 µM; in the experiment with HOP-62 NSCLC, 0.0961 µM; with HOP-92 NSCLC, 0.179 µM; in the experiment on HT29 colon, 0.119 µM; with OVCAR-8 ovarian, 0.163 µM. The TGI with SK-MEL-5 melanoma was 0.0363 µM; in the experiment with SNB-75 CNS, 0.706 µM; in the experiment with U251 CNS it was 0.108 µM; in the experiment on UACC-62 melanoma, 0.15 µM.

Take `OCc1ncc(-c2ccccc2)s1`: the GI50 in the experiment on CAKI-1 renal is more than 100000 nM; in the experiment with EKVX NSCLC, more than 100 µM; with HOP-62 NSCLC it was more than 100 µM; in the experiment on HOP-92 NSCLC it was 76.5 µM; in the experiment on HT29 colon it was more than 100 µM; with OVCAR-8 ovarian it was more than 100 µM. The GI50 with SK-MEL-5 melanoma, with SNB-75 CNS, with U251 CNS and with UACC-62 melanoma was more than 100 µM each time. Moreover, the TGI with CAKI-1 renal, in the experiment with EKVX NSCLC, in the experiment on HOP-62 NSCLC, in the experiment on HOP-92 NSCLC, with HT29 colon and with OVCAR-8 ovarian was more than 100 µM each time. The TGI in the experiment with SK-MEL-5 melanoma, in the experiment on SNB-75 CNS, with U251 CNS and in the experiment with UACC-62 melanoma was more than 100 µM each time.

As for `CC(C)(C)c1cc(-c2c3nc(c(-c4cc(C(C)(C)C)cc(C(C)(C)C)c4)c4ccc([nH]4)c(-c4cc(C(C)(C)C)cc(C(C)(C)C)c4)c4nc(c(-c5cc(C(C)(C)C)cc(C(C)(C)C)c5)c5ccc2[nH]5)C=C4)C=C3)cc(C(C)(C)C)c1`, the TGI in the experiment on CAKI-1 renal, with EKVX NSCLC, with HOP-62 NSCLC, with HOP-92 NSCLC, with HT29 colon and in the experiment on OVCAR-8 ovarian was more than 100 µM in each case. Besides, the TGI with SK-MEL-5 melanoma, with SNB-75 CNS, with U251 CNS and in the experiment with UACC-62 melanoma was more than 100 µM throughout.

With `CCOC(=O)Nc1ccc(C(=O)/C=C/c2ccccc2)cc1`, the GI50 in the experiment on CAKI-1 renal is 79000 nM; in the experiment on EKVX NSCLC, 37.5 µM; in the experiment with HOP-62 NSCLC it was 20.4 µM; with HOP-92 NSCLC, 11.2 µM; in the experiment on HT29 colon, 10.1 µM; with OVCAR-8 ovarian it was 33.5 µM. The GI50 with SK-MEL-5 melanoma is 27.1 µM; in the experiment with SNB-75 CNS it was 31.6 µM; in the experiment with U251 CNS, 12.6 µM; in the experiment with UACC-62 melanoma, 20.1 µM. Besides, the TGI in the experiment with CAKI-1 renal is more than 100 µM; in the experiment with EKVX NSCLC it was more than 100 µM; with HOP-62 NSCLC it was 47.3 µM; in the experiment with HOP-92 NSCLC it was 66.5 µM; in the experiment on HT29 colon, more than 100 µM; with OVCAR-8 ovarian, more than 100 µM. Moreover, the TGI is more than 100 µM with SK-MEL-5 melanoma, more than 100 µM in the experiment with SNB-75 CNS, 30.4 µM with U251 CNS and more than 100 µM in the experiment with UACC-62 melanoma.

Regarding `NC1=NCC(c2ccccn2)C1c1ccc(F)cc1` (stereo not given), the TGI in the experiment on CAKI-1 renal, in the experiment with EKVX NSCLC, in the experiment on HOP-62 NSCLC, with HOP-92 NSCLC, in the experiment with HT29 colon and in the experiment on OVCAR-8 ovarian was more than 100 µM in each case. Also, the TGI with SK-MEL-5 melanoma, in the experiment on SNB-75 CNS, with U251 CNS and with UACC-62 melanoma was more than 100 µM each time.
